Measured values taken from ChEMBL document CHEMBL3232928, “Fragment-to-hit-to-lead discovery of a novel pyridylurea scaffold of ATP competitive dual targeting type II topoisomerase inhibiting antibacterial agents” (J Med Chem, 2013).
Converted amounts (≈) assume the structure as drawn. The source made the active and inactive calls. The rule behind the calls is not given here.

target: DNA gyrase subunit B (Staphylococcus aureus, UniProt P0A0K8); test: Inhibition of ATPase activity in Staphylococcus aureus GyrB tetramer in presence of Escherichia coli GyrA by ammonium molybdate/malachite green-based absorbance assay; conditions: not given
Sequence (P0A0K8 whole entry): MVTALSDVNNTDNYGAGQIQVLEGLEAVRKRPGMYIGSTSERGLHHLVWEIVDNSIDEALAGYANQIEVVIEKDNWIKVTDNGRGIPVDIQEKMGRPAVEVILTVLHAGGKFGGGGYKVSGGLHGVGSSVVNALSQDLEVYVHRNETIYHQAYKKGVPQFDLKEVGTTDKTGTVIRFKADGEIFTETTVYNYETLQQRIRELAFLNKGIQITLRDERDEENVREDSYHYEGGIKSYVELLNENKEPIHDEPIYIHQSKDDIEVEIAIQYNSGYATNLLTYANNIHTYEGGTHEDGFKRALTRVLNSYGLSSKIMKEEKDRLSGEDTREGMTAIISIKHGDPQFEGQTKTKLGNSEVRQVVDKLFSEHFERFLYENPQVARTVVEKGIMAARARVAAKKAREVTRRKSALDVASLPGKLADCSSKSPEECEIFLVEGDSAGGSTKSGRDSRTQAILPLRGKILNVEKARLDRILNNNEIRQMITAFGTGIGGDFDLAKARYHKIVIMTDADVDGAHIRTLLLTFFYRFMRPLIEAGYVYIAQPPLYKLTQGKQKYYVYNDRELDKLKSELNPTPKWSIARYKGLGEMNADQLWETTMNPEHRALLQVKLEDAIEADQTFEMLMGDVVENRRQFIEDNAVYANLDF

Question: Which IC50 does the source give for `CCNC(=O)Nc1cc(-c2nc(C(F)(F)F)cs2)c(-c2cncc(-c3n[nH]c(=O)o3)c2)cn1` here?
Answer: < 0.01 µM

system: not listed separately; test: Inhibition of ATPase activity in Escherichia coli GyrA/GyrB by ammonium molybdate/malachite green-based absorbance assay; conditions: not given

Question: With `CCNC(=O)Nc1cc(-c2nc(C(F)(F)F)cs2)c(-c2cncc(-c3n[nH]c(=O)o3)c2)cn1` as the compound, how does the IC50 read?
Answer: < 0.01 µM

system: not listed separately; test: Inhibition of ATPase activity in Escherichia coli ParC/ParE by ammonium molybdate/malachite green-based absorbance assay; conditions: not given

Question: For `CCNC(=O)Nc1cc(-c2nc(C(F)(F)F)cs2)c(-c2cncc(-c3n[nH]c(=O)o3)c2)cn1`, which IC50 is on record?
Answer: 0.23 µM

system: not listed separately; test: Inhibition of ATPase activity in Escherichia coli ParE by ammonium molybdate/malachite green-based absorbance assay; conditions: not given

Question: For `CCNC(=O)Nc1cc(-c2nc(C(F)(F)F)cs2)c(-c2cncc(-c3n[nH]c(=O)o3)c2)cn1`, which IC50 is on record?
Answer: < 0.01 µM

system: not listed separately; test: Antibacterial activity against Streptococcus pneumoniae D39 NCTC 7466 assessed as growth inhibition after 18 to 24 hrs by CLSI broth microdilution method; type: functional; conditions: not given

Question: Which MIC does the source give for `CCNC(=O)Nc1cc(-c2nc(C(F)(F)F)cs2)c(-c2cncc(-c3n[nH]c(=O)o3)c2)cn1` here?
Answer: 0.05 µg/mL (≈ 0.105 µM)

system: Staphylococcus aureus; test: Antibacterial activity against methicillin-sensitive wild type Staphylococcus aureus assessed as growth inhibition after 18 to 24 hrs by CLSI broth microdilution method; type: functional; conditions: not given

Question: Which MIC does the source give for `CCNC(=O)Nc1cc(-c2nc(C(F)(F)F)cs2)c(-c2cncc(-c3n[nH]c(=O)o3)c2)cn1` here?
Answer: 0.04 µg/mL (≈ 0.0838 µM)

system: Staphylococcus aureus; test: Antibacterial activity against methicillin-resistant and […] Staphylococcus aureus assessed as growth inhibition after 18 to 24 hrs by CLSI broth microdilution method; type: functional; conditions: not given

Question: Which MIC does the source give for `CCNC(=O)Nc1cc(-c2nc(C(F)(F)F)cs2)c(-c2cncc(-c3n[nH]c(=O)o3)c2)cn1` here?
Answer: 0.06 µg/mL (≈ 0.126 µM)

system: Moraxella catarrhalis; test: Antibacterial activity against wild type Moraxella catarrhalis ATCC 43617 assessed as growth inhibition after 18 to 24 hrs by CLSI broth microdilution method; type: functional; conditions: not given

Question: With `CCNC(=O)Nc1cc(-c2nc(C(F)(F)F)cs2)c(-c2cncc(-c3n[nH]c(=O)o3)c2)cn1` as the compound, how does the MIC read?
Answer: 0.04 µg/mL (≈ 0.0838 µM)

system: not listed separately; test: Antibacterial activity against wild type Haemophilus influenzae Rd KW20 ATCC 51907 assessed as growth inhibition after 18 to 24 hrs by CLSI broth microdilution method; type: functional; conditions: not given

Question: Which MIC does the source give for `CCNC(=O)Nc1cc(-c2nc(C(F)(F)F)cs2)c(-c2cncc(-c3n[nH]c(=O)o3)c2)cn1` here?
Answer: 0.69 µg/mL (≈ 1.45 µM)

system: Escherichia coli; test: Antibacterial activity against wild type Escherichia coli W3110 assessed as growth inhibition after 18 to 24 hrs by CLSI broth microdilution method; type: functional; conditions: not given

Question: With `CCNC(=O)Nc1cc(-c2nc(C(F)(F)F)cs2)c(-c2cncc(-c3n[nH]c(=O)o3)c2)cn1` as the compound, how does the MIC read?
Answer: > 64 µg/mL

system: Escherichia coli; test: Antibacterial activity against tolC efflux pump deficient Escherichia coli W3110 assessed as growth inhibition after 18 to 24 hrs by CLSI broth microdilution method; type: functional; conditions: not given

Question: With `CCNC(=O)Nc1cc(-c2nc(C(F)(F)F)cs2)c(-c2cncc(-c3n[nH]c(=O)o3)c2)cn1` as the compound, how does the MIC read?
Answer: 0.15 µg/mL (≈ 0.314 µM)

system: not listed separately; test: Octanol-phosphate buffer partition coefficient, log D of the compound at pH 7.4 after 1 hr by shake flask method; type: physicochemical; conditions: not given

Question: For `CCNC(=O)Nc1cc(-c2nc(C(F)(F)F)cs2)c(-c2cncc(-c3n[nH]c(=O)o3)c2)cn1`, which logD at 1 h is on record?
Answer: 2

system: not listed separately; test: Solubility of the compound; type: physicochemical; conditions: not given

Question: Which solubility does the source give for `CCNC(=O)Nc1cc(-c2nc(C(F)(F)F)cs2)c(-c2cncc(-c3n[nH]c(=O)o3)c2)cn1` here?
Answer: 19 µM (≈ 9.07 µg/mL)

system: not listed separately; test: Unbound fraction in human at 10 uM after 16 hrs by LC-MS/MS analysis; type: ADME; conditions: plasma

Question: With `CCNC(=O)Nc1cc(-c2nc(C(F)(F)F)cs2)c(-c2cncc(-c3n[nH]c(=O)o3)c2)cn1` as the compound, how does the fraction unbound at 16 h, 10 µM read?
Answer: 0.044

system: not listed separately; test: Dissociation constant, pKa of the compound; type: physicochemical; conditions: not given

Question: Which pKa does the source give for `CCNC(=O)Nc1cc(-c2nc(C(F)(F)F)cs2)c(-c2cncc(-c3n[nH]c(=O)o3)c2)cn1` here?
Answer: 6.6

system: not listed separately; test: Clearance in rat plasma at 10 mg/kg, iv administered 15 mins of infusion measured for 0 to 24 hrs by LC-MS/MS analysis; type: ADME, organism-based; design: dose 10 mg/kg, route intravenous; conditions: not given

Question: For `CCNC(=O)Nc1cc(-c2nc(C(F)(F)F)cs2)c(-c2cncc(-c3n[nH]c(=O)o3)c2)cn1`, which clearance is on record?
Answer: 36 mL/min/kg

system: not listed separately; test: Volume of distribution at steady state in rat plasma at 10 mg/kg, iv administered 15 mins of infusion measured for 0 to 24 hrs by LC-MS/MS analysis; type: ADME, organism-based; design: dose 10 mg/kg, route intravenous; conditions: read-out: Vdss

Question: Which Vd does the source give for `CCNC(=O)Nc1cc(-c2nc(C(F)(F)F)cs2)c(-c2cncc(-c3n[nH]c(=O)o3)c2)cn1` here?
Answer: 0.66 L/kg

system: not listed separately; test: Clearance in mouse; type: ADME, organism-based; conditions: in vivo

Question: Which clearance does the source give for `CCNC(=O)Nc1cc(-c2nc(C(F)(F)F)cs2)c(-c2cncc(-c3n[nH]c(=O)o3)c2)cn1` here?
Answer: 74 mL/min/kg

system: not listed separately; test: Volume of distribution at steady state in mouse; type: ADME, organism-based; conditions: in vivo, read-out: Vdss

Question: For `CCNC(=O)Nc1cc(-c2nc(C(F)(F)F)cs2)c(-c2cncc(-c3n[nH]c(=O)o3)c2)cn1`, which Vd is on record?
Answer: 2.6 L/kg

system: not listed separately; test: Antibacterial activity against fluoroquinolone-resistant Streptococcus pneumoniae D39 NCTC 7466 expressing ParE/GyrB T172A mutant assessed as growth inhibition after 18 to 24 hrs by CLSI broth microdilution method; type: functional; conditions: not given

Question: For `CCNC(=O)Nc1cc(-c2nc(C(F)(F)F)cs2)c(-c2cncc(-c3n[nH]c(=O)o3)c2)cn1`, which MIC is on record?
Answer: 0.01 µg/mL (≈ 0.0209 µM)

system: not listed separately; test: Antibacterial activity against fluoroquinolone-resistant Streptococcus pneumoniae D39 NCTC 7466 expressing ParE/GyrB K143I mutant assessed as growth inhibition after 18 to 24 hrs by CLSI broth microdilution method; type: functional; conditions: not given

Question: Which MIC does the source give for `CCNC(=O)Nc1cc(-c2nc(C(F)(F)F)cs2)c(-c2cncc(-c3n[nH]c(=O)o3)c2)cn1` here?
Answer: 0.01 µg/mL (≈ 0.0209 µM)

system: not listed separately; test: Antibacterial activity against fluoroquinolone-resistant Streptococcus pneumoniae D39 NCTC 7466 expressing GyrB/ParE T172A mutant assessed as growth inhibition after 18 to 24 hrs by CLSI broth microdilution method; type: functional; conditions: not given

Question: For `CCNC(=O)Nc1cc(-c2nc(C(F)(F)F)cs2)c(-c2cncc(-c3n[nH]c(=O)o3)c2)cn1`, which MIC is on record?
Answer: 0.01 µg/mL (≈ 0.0209 µM)

system: not listed separately; test: Antibacterial activity against fluoroquinolone-resistant Streptococcus pneumoniae D39 NCTC 7466 expressing GyrB T172A/ParE T172A double mutant assessed as growth inhibition after 18 to 24 hrs by CLSI broth microdilution method; type: functional; conditions: not given

Question: For `CCNC(=O)Nc1cc(-c2nc(C(F)(F)F)cs2)c(-c2cncc(-c3n[nH]c(=O)o3)c2)cn1`, which MIC is on record?
Answer: 0.02 µg/mL (≈ 0.0419 µM)

system: not listed separately; test: Antibacterial activity against fluoroquinolone-resistant Streptococcus pneumoniae D39 NCTC 7466 expressing GyrB K143A/ParE T172A double mutant assessed as growth inhibition after 18 to 24 hrs by CLSI broth microdilution method; type: functional; conditions: not given

Question: Which MIC does the source give for `CCNC(=O)Nc1cc(-c2nc(C(F)(F)F)cs2)c(-c2cncc(-c3n[nH]c(=O)o3)c2)cn1` here?
Answer: 0.04 µg/mL (≈ 0.0838 µM)

system: not listed separately; test: Antibacterial activity against fluoroquinolone-resistant Streptococcus pneumoniae D39 NCTC 7466 expressing GyrA S81F/ParC S79F double mutant assessed as growth inhibition after 18 to 24 hrs by CLSI broth microdilution method; type: functional; conditions: not given

Question: Which MIC does the source give for `CCNC(=O)Nc1cc(-c2nc(C(F)(F)F)cs2)c(-c2cncc(-c3n[nH]c(=O)o3)c2)cn1` here?
Answer: 0.0025 µg/mL (≈ 0.00524 µM)

system: not listed separately; test: Antibacterial activity against fluoroquinolone-resistant Streptococcus pneumoniae D39 NCTC 7466 expressing GyrA S81Y/ParC S79F double mutant assessed as growth inhibition after 18 to 24 hrs by CLSI broth microdilution method; type: functional; conditions: not given

Question: For `CCNC(=O)Nc1cc(-c2nc(C(F)(F)F)cs2)c(-c2cncc(-c3n[nH]c(=O)o3)c2)cn1`, which MIC is on record?
Answer: 0.0025 µg/mL (≈ 0.00524 µM)

system: not listed separately; test: Antibacterial activity against fluoroquinolone-resistant Streptococcus pneumoniae D39 NCTC 7466 expressing GyrA S81F/ParC S79Y double mutant assessed as growth inhibition after 18 to 24 hrs by CLSI broth microdilution method; type: functional; conditions: not given

Question: Which MIC does the source give for `CCNC(=O)Nc1cc(-c2nc(C(F)(F)F)cs2)c(-c2cncc(-c3n[nH]c(=O)o3)c2)cn1` here?
Answer: 0.0025 µg/mL (≈ 0.00524 µM)

system: Staphylococcus aureus; test: Antibacterial activity against Staphylococcus aureus infected in neutropenic mouse thigh model assessed as decrease in bacterial viable counts at 300 mg/kg, ip administered up to 12 hrs; type: functional, organism-based; design: dose 300 mg/kg; conditions: not given

Question: For `CCNC(=O)Nc1cc(-c2nc(C(F)(F)F)cs2)c(-c2cncc(-c3n[nH]c(=O)o3)c2)cn1`, which Activity is on record?
Answer: Active

system: Staphylococcus aureus; test: Antibacterial activity against Staphylococcus aureus infected in neutropenic mouse thigh model assessed as decrease in bacterial viable counts at 300 mg/kg, ip administered up to 12 hrs relative to vehicle-treated control; type: functional; conditions: route intraperitoneal

Question: With `CCNC(=O)Nc1cc(-c2nc(C(F)(F)F)cs2)c(-c2cncc(-c3n[nH]c(=O)o3)c2)cn1` as the compound, how does the “fold change (FC)” value read?
Answer: 3000

system: Staphylococcus aureus; test: Antibacterial activity against ip dosed Staphylococcus aureus infected in neutropenic mouse thigh model assessed as decrease in bacterial viable counts administered up to 12 hrs relative to vehicle-treated control; type: functional, organism-based; conditions: Thigh muscle

Question: Which Activity does the source give for `CCNC(=O)Nc1cc(-c2nc(C(F)(F)F)cs2)c(-c2cncc(-c3n[nH]c(=O)o3)c2)cn1` here?
Answer: Dose-dependent effect

system: Staphylococcus aureus; test: Antibacterial activity against ip dosed Staphylococcus aureus infected in neutropenic mouse thigh model assessed as decrease in bacterial viable counts administered up to 12 hrs; type: functional; conditions: Thigh muscle

Question: For `CCNC(=O)Nc1cc(-c2nc(C(F)(F)F)cs2)c(-c2cncc(-c3n[nH]c(=O)o3)c2)cn1`, which ED50 is on record?
Answer: 200 mg/kg

system: Staphylococcus aureus; test: Resistance factor, ratio of MIC for Staphylococcus aureus drug resistance mutants at 0.05 ug/ml after 7 days to MIC for wild type methicillin-sensitive Staphylococcus aureus at 0.05 ug/ml after 7 days; type: functional; conditions: not given

Question: Which Ratio does the source give for `CCNC(=O)Nc1cc(-c2nc(C(F)(F)F)cs2)c(-c2cncc(-c3n[nH]c(=O)o3)c2)cn1` here?
Answer: 16

system: Staphylococcus aureus; test: Resistance factor, ratio of MIC for Staphylococcus aureus drug resistance mutants at 0.05 ug/ml after 7 days to MIC for wild type methicillin-sensitive Staphylococcus aureus at 0.1 ug/ml after 7 days; type: functional; conditions: not given

Question: For `CCNC(=O)Nc1cc(-c2nc(C(F)(F)F)cs2)c(-c2cncc(-c3n[nH]c(=O)o3)c2)cn1`, which Ratio is on record?
Answer: 16

system: Staphylococcus aureus; test: Resistance factor, ratio of MIC for Staphylococcus aureus drug resistance mutants at 0.05 ug/ml after 7 days to MIC for wild type methicillin-sensitive Staphylococcus aureus at 0.2 ug/ml after 7 days; type: functional; conditions: not given

Question: Which Ratio does the source give for `CCNC(=O)Nc1cc(-c2nc(C(F)(F)F)cs2)c(-c2cncc(-c3n[nH]c(=O)o3)c2)cn1` here?
Answer: 16

system: Streptococcus pneumoniae; test: microbe, parasite or virus in culture; conditions: not given

Question: For `CCNC(=O)Nc1cc(-c2nc(C(F)(F)F)cs2)c(-c2cncc(-c3n[nH]c(=O)o3)c2)cn1`, which MIC is on record?
Answer: 0.0025 µg/mL (≈ 0.00524 µM)
